Some test systems named below: BT-549 breast; HOP-92 NSCLC; KM12 colon; LOX IMVI melanoma; NCI/ADR-RES ovarian; RXF 393 renal; SF-295 CNS; SK-OV-3 ovarian; U251 CNS; NCI-H522 lung.
What all share (assay): NCI-60 cell line screen, 48 h

Where “and” joins values, the source holds several entries; their conditions need not be identical. Equal values may be shown once.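 Grown in 96-well plates, cells were treated for 48 hours with each compound at five concentrations. Insufficient inhibition: endpoint recorded as highest concentration tested. GI50 marks 50% less growth. TGI marks complete inhibition of growth.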 Where only a bound is given, the exact number is not on record here.

On to `Cc1[nH]c2ncn(/N=C/c3ccccc3O)c(=N)c2c1Cc1ccccc1`, for which the TGI in the experiment with BT-549 breast, with HOP-92 NSCLC, with KM12 colon, in the experiment with LOX IMVI melanoma, in the experiment on NCI/ADR-RES ovarian and with RXF 393 renal was over 100 µM throughout. For the same molecule, the results for the TGI with SF-295 CNS, in the experiment with SK-OV-3 ovarian and in the experiment on U251 CNS were over 100 µM, over 100 µM and 41.2 µM, respectively.

With `Nc1nc2c(=O)c3ccccc3sc2s1`, the TGI with BT-549 breast was over 100 µM; in the experiment with HOP-92 NSCLC, over 100 µM; with KM12 colon, over 100 µM; in the experiment on LOX IMVI melanoma, over 100 µM; with NCI/ADR-RES ovarian, 90.5 µM; in the experiment with RXF 393 renal it was over 100 µM. Also, the TGI with SF-295 CNS and with U251 CNS was over 100 µM throughout.

`CCC1(O)CC(OC2CC(N(C)C)C(OC3CC4OC5CC(=O)C(C)OC5OC4C(C)O3)C(C)O2)c2c(cc3c(c2O)C(=O)c2c(O)ccc(O)c2C3=O)C1C(=O)OC` (stereo not drawn): the TGI was 0.0828 µM and 0.0644 µM in the experiment on HOP-92 NSCLC; 0.0319 µM and 0.0122 µM and 0.0182 µM in the experiment on NCI-H522 lung; 0.0943 µM and 0.224 µM and 0.171 µM in the experiment with NCI/ADR-RES ovarian. In addition, the GI50 in the experiment with LOX IMVI melanoma is 0.00915 µM; in the experiment on NCI-H522 lung, 0.00111 µM and 0.00788 µM; with NCI/ADR-RES ovarian, 0.00629 µM and 0.0109 µM and < 0.0105 µM; with U251 CNS, 0.00486 µM and 0.00785 µM and < 0.0121 µM.

Regarding `O=C(O)c1ccccc1.[Ag]`, the TGI with BT-549 breast was 64.9 µM; in the experiment on HOP-92 NSCLC, 41.3 µM; in the experiment with KM12 colon, 47.3 µM; with LOX IMVI melanoma, over 66.6 µM; with NCI/ADR-RES ovarian it was over 100 µM; in the experiment with RXF 393 renal, 35.9 µM. Further, the TGI in the experiment with SF-295 CNS is over 100 µM; with SK-OV-3 ovarian it was 31.2 µM; in the experiment with U251 CNS, 35.4 µM.

Turning to `C=C1C(=O)OC2/C=C(\C)C(OC(C)=O)C3OC3C(C)(O)CC(OC(=O)/C(C)=C/C)C12` (stereo not drawn), the TGI with HOP-92 NSCLC came to 23.5 µM; in the experiment with KM12 colon, 28.7 µM; with LOX IMVI melanoma, 30.4 µM; with NCI-H522 lung, 3.37 µM; in the experiment with RXF 393 renal it was 19.3 µM; with SF-295 CNS it was 42.4 µM. Besides, the figures for the TGI in the experiment with SK-OV-3 ovarian and in the experiment with U251 CNS were 34.5 µM and 24.5 µM, respectively.

Regarding `CCOC(=O)c1cnc(-n2[nH]c(C)c(CCO)c2=O)[nH]c1=O`, the TGI with HOP-92 NSCLC, in the experiment with KM12 colon, in the experiment with LOX IMVI melanoma, with NCI/ADR-RES ovarian, in the experiment on RXF 393 renal and with SF-295 CNS was over 100 µM throughout. The TGI in the experiment on SK-OV-3 ovarian and in the experiment with U251 CNS was over 100 µM in each case.

For `COc1ccc(Cn2c(C)nc3c2C(=O)c2ccccc2C3=O)cc1`, the TGI in the experiment with KM12 colon is 26.7 µM; with LOX IMVI melanoma, 11.2 µM; in the experiment with NCI-H522 lung, 15.5 µM; in the experiment on RXF 393 renal, 63.4 µM; with SF-295 CNS it was 58.2 µM; in the experiment with SK-OV-3 ovarian, over 75 µM. In the experiment with U251 CNS, this molecule gave a TGI of over 75 µM.

Take `CC12CC3C(CC1SCC(=O)O2)C3(C)C` (stereo not drawn): the TGI in the experiment with HOP-92 NSCLC, in the experiment with KM12 colon, in the experiment on SF-295 CNS, in the experiment with SK-OV-3 ovarian and in the experiment on U251 CNS was over 100 µM each time.

For `COc1cc(CCc2cccnc2)cc(OC)c1OC`, the TGI in the experiment on HOP-92 NSCLC, in the experiment on KM12 colon, with LOX IMVI melanoma, in the experiment with NCI-H522 lung, in the experiment on RXF 393 renal and in the experiment with SF-295 CNS was over 100 µM throughout. For the same molecule, the TGI in the experiment on U251 CNS was over 100 µM.

In the case of `COc1c2c(c3c(c1C1OC(C)[C@@H](C)O1)CC(C)(C)O3)C(=O)c1ccccc1C2=O` (stereo partly drawn), the TGI in the experiment with HOP-92 NSCLC is 89.7 µM; in the experiment on KM12 colon, over 100 µM; with LOX IMVI melanoma, 28.6 µM; in the experiment with RXF 393 renal it was over 100 µM; with SF-295 CNS, over 100 µM; in the experiment on SK-OV-3 ovarian it was over 100 µM. In addition, the TGI in the experiment with U251 CNS is over 100 µM.

Regarding `CCOC(=O)CCCn1nnc(C(=O)OCC)c1C(=O)OCC`, the TGI in the experiment with BT-549 breast, with HOP-92 NSCLC, with KM12 colon, in the experiment on LOX IMVI melanoma, with NCI/ADR-RES ovarian and in the experiment on RXF 393 renal was over 100 µM in each case. The TGI with SF-295 CNS and with U251 CNS was over 100 µM throughout.

With `CC(=O)OCC1OC(Nc2[nH]c(=O)n(C)c(=O)c2-c2csc(N)n2)C(OC(C)=O)C(OC(C)=O)C1OC(C)=O` (stereo not drawn), the TGI in the experiment with HOP-92 NSCLC, with KM12 colon, in the experiment on LOX IMVI melanoma, in the experiment on NCI-H522 lung, in the experiment with SF-295 CNS and in the experiment on SK-OV-3 ovarian was over 100 µM each time. The TGI in the experiment on U251 CNS was over 100 µM.

Turning to `O=C(Cn1c(=O)oc2ccc(C(=O)c3ccc(F)cc3)cc21)c1ccc([N+](=O)[O-])cc1`, the TGI with HOP-92 NSCLC was over 100 µM; in the experiment on KM12 colon it was 87 µM; with LOX IMVI melanoma it was over 100 µM; in the experiment on NCI-H522 lung it was 80.4 µM; in the experiment with NCI/ADR-RES ovarian, over 100 µM; in the experiment with RXF 393 renal it was over 100 µM. The TGI in the experiment on SK-OV-3 ovarian and with U251 CNS was over 100 µM throughout.

As to `COC(=O)[C@H](Cc1ccccc1)NC(=O)c1ccc(CNC(=O)/C=C/c2ccc(-c3ccccc3)cc2)cc1`, the TGI in the experiment with BT-549 breast was 97.2 µM; with HOP-92 NSCLC, over 100 µM; with KM12 colon it was over 100 µM; in the experiment on NCI/ADR-RES ovarian it was over 100 µM; in the experiment on RXF 393 renal, 40.3 µM; in the experiment on SF-295 CNS, 94.5 µM. The TGI with SK-OV-3 ovarian is over 100 µM; with U251 CNS, 37.3 µM.

For `COC(=O)c1cn(CCCC(=O)O)nn1`, the TGI in the experiment on BT-549 breast, in the experiment on HOP-92 NSCLC, in the experiment with KM12 colon, with LOX IMVI melanoma, in the experiment on NCI/ADR-RES ovarian and with RXF 393 renal was over 100 µM each time. The TGI in the experiment with SF-295 CNS and in the experiment on U251 CNS was over 100 µM each time.

`Cn1cnc([N+](=O)[O-])c1Sc1nc2cc(Cl)c(F)cc2[nH]1`: the TGI with HOP-92 NSCLC was 28.9 µM; in the experiment on KM12 colon, 36.6 µM; in the experiment on LOX IMVI melanoma, 39.7 µM; in the experiment with RXF 393 renal it was 9.93 µM; in the experiment on SF-295 CNS, over 100 µM; with SK-OV-3 ovarian, 61.9 µM. In the experiment with U251 CNS, this molecule registered a TGI of 24 µM.

In the case of `COc1cccc2c1OC1c3ccccc3OCC1C2` (stereo not drawn), the TGI with BT-549 breast, with KM12 colon, in the experiment on LOX IMVI melanoma, in the experiment on NCI/ADR-RES ovarian, in the experiment on SF-295 CNS and in the experiment on SK-OV-3 ovarian was over 100 µM in each case. The TGI with U251 CNS was over 100 µM.

These data come from PubChem BioAssay (NCI).
